Measured values published in patent US20170191057A1, “RNA EDITING BIOMARKERS FOR DIAGNOSIS, PHARMACOLOGICAL SCREENING AND PROGNOSTICATION IN CANCER” (REGENTS OF THE UNIVERSITY OF CALIFORNIA, priority 2014, published 2017).

How the values were obtained:
ADAR1 = experiment: qRT-PCR of total ADAR1 levels after 8-azaadenosine treatment; format: cell-based, human; conditions: cord blood, ABM, and blast crisis cells; FIG. 21A
Protocol: (A) 8-azaadenosine treatment results in reduced total ADAR1 levels by qRT-PCR, and (B) decreased RNA editing in APOBEC3D (Sites 1 & 2) by direct sequencing.
Cell lines, lentivirus-transduced primary hematopoietic cells, or FACS-purified primary cells were harvested in lysis buffer (Qiagen). RNA was purified using RNeasy extraction kits with a DNase (Qiagen) incubation step to digest any trace genomic DNA present. For RNA extraction from cell line lysates, 1-2×10^6 cells were extracted using RNeasy mini columns, and for primary cells, 5-10×10^4 cells were lysed and extracted using RNeasy micro columns. Genomic DNA was purified from equal numbers of cells lysed separately using the QIAamp DNA Blood Mini Kit (Qiagen) including an RNase A incubation step to digest any RNA present (Qiagen). RNA was stored at −80° C. and gDNA stored at −20° C. Immediately prior to reverse transcription of RNA samples, nucleic acid concentrations were quantified on a NanoDrop 2000 spectrophotometer (Thermo Scientific), and purity was considered acceptable if A260/A280 values were >1.8. […]

[1] = system: RNA editing in APOBEC3D (Sites 1 & 2); experiment: Direct sequencing of CSC-specific RNA editing biomarkers in APOBEC3D after 8-azaadenosine treatment; format: cell-based, human
Protocol: As proof-of-concept that small molecule inhibitors could block RNA editing activity, CD34^+ cells from a CML blast crisis patient were treated with vehicle or 1 μM 8-azaadenosine (Veliz et al., JACS 2003) for 24 hours and co-cultured on humanized bone marrow stromal cells (SL/M2) for 5 days. […] Thus, RESSq-PCR and RNA editing inhibitors is an allele-specific diagnostic assay that can be used for detection of primate-specific RNA editing events in cancer stem cells.
For PCR and targeted Sanger sequencing analysis, 1-2 μL of first-strand cDNA templates were prepared for PCR in 25-50 μL reaction volumes using the high-fidelity KOD Hot Start DNA Polymerase kit according to the manufacturer's instructions (EMD Millipore, Temecula, Calif.). “Outer” primers (Additional file 2: Table S2) used for sequencing produce predicted amplicons of approximately 150-250 nucleotides in length, and flank each editing site with approximately 50-100 bp on either side of the editing site to facilitate successful sequencing analysis. […] Sequence chromatograms were analyzed using 4Peaks (by A. Griekspoor and Tom Groothuis) and peak heights calculated using ImageJ (NIH). For RNA editing analysis of sequencing chromatograms, ratios of edited/WT peaks were calculated using the raw peak amplitude of each sequence trace.

Nc1ncnc2c1nnn2[C@@H]1O[C@H](CO)[C@@H](O)[C@H]1O [8-azaadenosine]
total ADAR1 levels by qRT-PCR (ADAR1): reduced | edit/wild-type sequence ratios of two CSC-specific RNA editing biomarkers in APOBEC3D ([1]; CD34+ cells from a CML blast crisis patient, 1 μM for 24 hours vs vehicle, co-cultured on SL/M2 stromal cells for 5 days): reduction | RNA editing in APOBEC3D (Sites 1 & 2) by direct sequencing ([1]; cord blood, ABM, and blast crisis cells, FIG. 21B): decreased
